Residues, ends and D or L forms follow the SMILES beside them.

Test [1] can be described thus: Selectivity of rat recombinant nNOS over mouse recombinant iNOS.
Test [2] can be described thus: Selectivity of rat recombinant nNOS over bovine recombinant eNOS.
The target in test [3] is Nitric oxide synthase 1 (Rattus norvegicus, UniProt P29476). The experiment in a line: Inhibition of rat recombinant nNOS expressed in Escherichia coli assessed as nitric oxide production by hemoglobin capture assay.
Sequence of Nitric oxide synthase 1 (P29476 whole entry): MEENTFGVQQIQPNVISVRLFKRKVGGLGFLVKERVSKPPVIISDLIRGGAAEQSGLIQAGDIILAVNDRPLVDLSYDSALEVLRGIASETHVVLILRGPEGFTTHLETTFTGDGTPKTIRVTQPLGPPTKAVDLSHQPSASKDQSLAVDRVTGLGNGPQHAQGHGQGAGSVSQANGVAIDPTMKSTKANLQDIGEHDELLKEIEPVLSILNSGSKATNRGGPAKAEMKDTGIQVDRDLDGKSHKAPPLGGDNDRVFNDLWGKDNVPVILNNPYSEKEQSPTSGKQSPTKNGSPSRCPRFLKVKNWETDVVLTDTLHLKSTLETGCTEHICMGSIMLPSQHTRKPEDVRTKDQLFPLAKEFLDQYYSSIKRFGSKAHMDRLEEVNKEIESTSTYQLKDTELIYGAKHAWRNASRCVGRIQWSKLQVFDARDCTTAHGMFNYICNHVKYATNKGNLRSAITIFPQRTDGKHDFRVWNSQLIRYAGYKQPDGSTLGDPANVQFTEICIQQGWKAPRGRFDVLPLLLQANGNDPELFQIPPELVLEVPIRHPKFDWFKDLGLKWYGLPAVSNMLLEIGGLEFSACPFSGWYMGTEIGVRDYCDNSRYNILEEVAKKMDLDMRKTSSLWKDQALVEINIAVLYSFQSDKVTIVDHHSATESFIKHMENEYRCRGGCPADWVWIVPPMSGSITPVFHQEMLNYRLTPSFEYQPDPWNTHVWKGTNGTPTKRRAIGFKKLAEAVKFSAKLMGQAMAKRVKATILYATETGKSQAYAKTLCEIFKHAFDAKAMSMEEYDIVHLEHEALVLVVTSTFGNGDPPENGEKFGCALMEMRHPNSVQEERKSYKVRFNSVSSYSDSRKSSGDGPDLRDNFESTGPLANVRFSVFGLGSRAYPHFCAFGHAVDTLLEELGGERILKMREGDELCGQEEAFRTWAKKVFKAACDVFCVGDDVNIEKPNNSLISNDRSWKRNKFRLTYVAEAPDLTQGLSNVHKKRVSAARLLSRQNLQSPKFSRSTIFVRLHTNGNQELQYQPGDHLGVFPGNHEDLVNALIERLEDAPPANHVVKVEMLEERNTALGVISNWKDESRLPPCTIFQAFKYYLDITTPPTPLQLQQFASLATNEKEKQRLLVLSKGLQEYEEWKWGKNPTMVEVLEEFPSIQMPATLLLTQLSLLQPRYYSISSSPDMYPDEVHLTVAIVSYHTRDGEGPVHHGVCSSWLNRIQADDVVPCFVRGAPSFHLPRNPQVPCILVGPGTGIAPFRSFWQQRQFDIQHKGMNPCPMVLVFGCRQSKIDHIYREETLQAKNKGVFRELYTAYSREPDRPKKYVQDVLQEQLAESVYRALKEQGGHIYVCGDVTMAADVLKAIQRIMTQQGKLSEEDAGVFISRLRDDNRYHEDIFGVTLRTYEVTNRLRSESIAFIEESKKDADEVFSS
For test [4], the target named is T1, Nitric oxide synthase, inducible (Mus musculus, UniProt P29477).
T1 sequence (P29477 whole entry): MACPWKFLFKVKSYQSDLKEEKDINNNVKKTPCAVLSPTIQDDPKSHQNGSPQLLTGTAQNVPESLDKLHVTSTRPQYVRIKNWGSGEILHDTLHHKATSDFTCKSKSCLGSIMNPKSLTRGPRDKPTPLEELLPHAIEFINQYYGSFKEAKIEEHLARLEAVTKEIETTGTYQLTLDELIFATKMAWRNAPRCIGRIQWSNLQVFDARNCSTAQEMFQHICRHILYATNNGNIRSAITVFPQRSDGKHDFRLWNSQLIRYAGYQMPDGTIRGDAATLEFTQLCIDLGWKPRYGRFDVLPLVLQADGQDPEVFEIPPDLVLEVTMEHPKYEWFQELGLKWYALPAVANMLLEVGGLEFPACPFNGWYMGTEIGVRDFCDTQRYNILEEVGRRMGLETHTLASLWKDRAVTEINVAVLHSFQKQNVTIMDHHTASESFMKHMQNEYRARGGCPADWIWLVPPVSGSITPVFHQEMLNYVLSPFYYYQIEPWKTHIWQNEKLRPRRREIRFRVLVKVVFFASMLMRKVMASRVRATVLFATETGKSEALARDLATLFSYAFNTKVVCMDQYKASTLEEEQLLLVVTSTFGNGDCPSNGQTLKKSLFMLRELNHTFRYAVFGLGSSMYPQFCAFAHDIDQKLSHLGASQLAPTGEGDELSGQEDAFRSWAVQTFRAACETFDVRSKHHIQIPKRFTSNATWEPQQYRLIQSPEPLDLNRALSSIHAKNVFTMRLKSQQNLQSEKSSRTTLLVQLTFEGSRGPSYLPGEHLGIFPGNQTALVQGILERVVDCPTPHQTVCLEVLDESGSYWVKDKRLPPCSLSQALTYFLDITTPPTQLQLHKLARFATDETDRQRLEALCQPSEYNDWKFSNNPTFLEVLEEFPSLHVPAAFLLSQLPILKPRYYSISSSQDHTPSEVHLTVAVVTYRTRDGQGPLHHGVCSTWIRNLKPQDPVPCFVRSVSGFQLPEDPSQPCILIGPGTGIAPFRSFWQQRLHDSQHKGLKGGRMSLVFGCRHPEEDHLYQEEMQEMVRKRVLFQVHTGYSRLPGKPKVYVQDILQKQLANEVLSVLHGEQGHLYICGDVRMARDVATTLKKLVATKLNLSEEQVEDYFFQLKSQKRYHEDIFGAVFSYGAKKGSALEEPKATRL
The experiment in a line: Inhibition of mouse recombinant iNOS expressed in Escherichia coli assessed as nitric oxide production by hemoglobin capture assay.

Test [5] addresses T2, Nitric oxide synthase 3 (Bos taurus, UniProt P29473).
T2 sequence (P29473 whole entry): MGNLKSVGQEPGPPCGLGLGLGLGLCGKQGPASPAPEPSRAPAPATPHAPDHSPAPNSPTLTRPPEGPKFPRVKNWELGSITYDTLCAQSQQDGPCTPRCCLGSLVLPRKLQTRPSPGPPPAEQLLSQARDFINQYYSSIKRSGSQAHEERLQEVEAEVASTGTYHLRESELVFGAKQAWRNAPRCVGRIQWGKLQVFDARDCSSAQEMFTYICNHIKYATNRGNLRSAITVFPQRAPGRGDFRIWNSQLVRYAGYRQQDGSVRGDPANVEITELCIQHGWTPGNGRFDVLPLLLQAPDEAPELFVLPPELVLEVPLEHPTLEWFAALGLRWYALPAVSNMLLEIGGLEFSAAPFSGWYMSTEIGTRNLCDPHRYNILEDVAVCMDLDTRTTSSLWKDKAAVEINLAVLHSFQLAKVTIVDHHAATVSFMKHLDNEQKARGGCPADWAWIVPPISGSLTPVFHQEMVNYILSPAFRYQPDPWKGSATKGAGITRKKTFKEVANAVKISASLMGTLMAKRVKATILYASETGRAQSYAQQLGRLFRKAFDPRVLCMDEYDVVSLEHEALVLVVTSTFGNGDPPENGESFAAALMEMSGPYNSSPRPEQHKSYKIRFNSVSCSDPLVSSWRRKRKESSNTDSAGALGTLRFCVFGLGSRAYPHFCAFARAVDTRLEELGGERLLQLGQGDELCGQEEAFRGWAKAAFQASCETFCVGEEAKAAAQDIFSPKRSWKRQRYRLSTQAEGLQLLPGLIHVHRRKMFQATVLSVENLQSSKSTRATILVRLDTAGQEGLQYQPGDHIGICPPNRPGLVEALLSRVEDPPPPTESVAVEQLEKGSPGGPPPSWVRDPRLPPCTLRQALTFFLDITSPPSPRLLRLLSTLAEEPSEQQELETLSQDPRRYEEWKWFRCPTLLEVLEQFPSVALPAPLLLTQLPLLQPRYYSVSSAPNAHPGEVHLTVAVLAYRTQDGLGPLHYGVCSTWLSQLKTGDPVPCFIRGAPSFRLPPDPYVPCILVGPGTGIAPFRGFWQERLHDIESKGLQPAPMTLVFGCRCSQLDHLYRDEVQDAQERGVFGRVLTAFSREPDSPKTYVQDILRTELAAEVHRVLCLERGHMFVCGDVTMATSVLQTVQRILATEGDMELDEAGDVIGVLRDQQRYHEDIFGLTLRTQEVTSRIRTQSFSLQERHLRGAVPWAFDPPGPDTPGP
The experiment in a line: Inhibition of bovine recombinant eNOS expressed in Escherichia coli assessed as nitric oxide production by hemoglobin capture assay.

On to `CN[C@@H](CCCNC(=N)N[N+](=O)[O-])C(=O)NC1CCNCC1`, for which the Ratio Ki in test [1] was found to be 216; in test [2], 48.
For `N=C(NCCC[C@H](N)C(=O)N[C@@H]1CCNC1)N[N+](=O)[O-]` the same measures were 250 and 309.
Usually Ki stands for a dissociation constant, usually derived from enzyme kinetics or from competition with a known ligand. For `N=C(NCCC[C@H](N)C(=O)N[C@H]1CCCNC1)N[N+](=O)[O-]`, the results for the Ki in test [3], in test [4] and in test [5] were 7620 nM, 535 µM and 221 µM, respectively. Besides, the Ratio Ki turned out to be 70 in test [1] and 29 in test [2].
Take `NC(=N[N+](=O)[O-])NCCC[C@H](N)C(=O)N[C@@H]1CCNC1`: the Ki in test [3] stood at 220 nM; in test [4], 55 µM; in test [5] it was 68 µM.
For `NC(=N[N+](=O)[O-])NCCC[C@H](N)C(=O)N[C@@H]1CCCNC1`, the Ki in test [3] was found to be 480 nM; in test [4] it was 90 µM; in test [5], 225 µM.
With `CN[C@@H](CCCNC(=N)N[N+](=O)[O-])C(=O)N[C@H]1CN[C@H](C(N)=O)C1`, the Ki in test [3] worked out at 1090 nM; in test [4], 65 µM; in test [5] it was 290 µM. For the same molecule, the figures for the Ratio Ki in test [1] and in test [2] were 60 and 266, respectively.
For `N=C(NCCC[C@H](N)C(=O)NC1CCNCC1)N[N+](=O)[O-]` the same measures were 470 nM, 202 µM, 262 µM, 430 and 557.
Take `CN[C@@H](CCCNC(N)=N[N+](=O)[O-])C(=O)N[C@@H]1CCCNC1`: the Ki amounted to 2260 nM in test [3], 242 µM in test [4] and 174 µM in test [5].
For `NC(=N[N+](=O)[O-])NCCC[C@H](N)C(=O)N[C@H]1CCNC1` the same measures were 1760 nM, 57 µM and 77 µM.
As for `N=C(NCCC[C@H](N)C(=O)N[C@H]1CCNC1)N[N+](=O)[O-]`, the Ratio Ki in test [1] was 32; in test [2], 44.
Consider `NC(=O)[C@@H]1C[C@@H](NC(=O)[C@@H](N)CCC/N=C(\N)N[N+](=O)[O-])CN1`, for which the Ki turned out to be 330 nM in test [3] and 17 µM in test [4].
On to `CN[C@@H](CCCNC(N)=N[N+](=O)[O-])C(=O)NC1CCNCC1`, for which the Ki in test [3] came out at 2380 nM; in test [4], 515 µM; in test [5], 114 µM.
`C[C@H](NC(=O)[C@H](CC(N)=O)NC(=O)[C@@H](N)CC(N)=O)C(=O)O` (H-Asn-Asn-Ala-OH): the Ki is 610 nM in test [3], 4.28 µM in test [4] and 0.72 µM in test [5]. Besides, the results for the Ratio Ki in test [1] and in test [2] were 7 and 1.2, respectively.
As to `CN[C@@H](CCCNC(N)=N[N+](=O)[O-])C(=O)N[C@@H]1CCNC1`, the figures for the Ki in test [3], in test [4] and in test [5] were 1080 nM, 124 µM and 160 µM, respectively.
As for `CN[C@@H](CCCNC(=N)N[N+](=O)[O-])C(=O)N[C@@H]1CCNC1`, the Ratio Ki in test [1] turned out to be 115; in test [2] it was 148.
For `CN[C@@H](CCCNC(=N)N[N+](=O)[O-])C(=O)N[C@@H]1CCCNC1`, in that order: 107 and 77.
For the molecule `N=C(NCCC[C@H](N)C(=O)N[C@@H]1CCCNC1)N[N+](=O)[O-]`, the Ratio Ki in test [1] is 188; in test [2], 469.

(Values after ChEMBL document CHEMBL1142908, “Selective L-nitroargininylaminopyrrolidine and L-nitroargininylaminopiperidine neuronal nitric oxide synthase inhibitors” (Bioorg Med Chem, 2007).)
